pIC50: −log10 of the molar value. Like-named read-outs stand apart in the source and are kept apart here.

Assay [1] concerns the target T1, Abl SH2 (Homo sapiens, UniProt P00519).
T1 construct: glutathione-S-transferase(GST)-Abl SH2 fusion protein
T1 sequence (P00519 127-217 limits assumed): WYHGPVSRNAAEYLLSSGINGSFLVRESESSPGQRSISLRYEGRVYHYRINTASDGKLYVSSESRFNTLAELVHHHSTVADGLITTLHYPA
In words: Inhibition of 125I-phosphopeptide binding to immobilized Abl SH2. The protocol: The binding affinities of compounds of the present invention to Abl SH2 was determined using a competitive radiolabeled phosphopeptide displacement assay. […] Binding was performed at room temperature for 20 minutes while continuously inverting the plate.

Assay [2] addresses T2, Src SH2 (Homo sapiens, UniProt P12931).
T2 construct: glutathione-S-transferase(GST)-Src SH2 fusion protein
In words: Inhibition of 125I-phosphopeptide binding to immobilized Src SH2. The conditions noted are these: competitive 125I-phosphopeptide displacement, GST-Src SH2 fusion protein, pH 7.5, room temperature, 20 minutes. On the procedure:
The binding affinities of compounds of the present invention to Src SH2 was determined using a competitive radiolabeled phosphopeptide displacement assay.
Binding was performed at room temperature for 20 minutes while continuously inverting the plate. […] Results are expressed as IC50 values in Table 1 below.

Where [3] appears, read: IC50, Abl SH2 Binding, competitive 125I-phosphopeptide displacement, GST-Abl SH2 fusion protein, pH 7.5, room temperature, 20 minutes.
The mark [4] stands for this setting: read-out: IC50, SRC SH2 Binding.

T2 sequence (P12931 151-248 limits assumed): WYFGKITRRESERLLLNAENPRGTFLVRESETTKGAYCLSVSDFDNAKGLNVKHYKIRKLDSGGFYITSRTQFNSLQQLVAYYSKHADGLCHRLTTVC

As to `CC(=O)N[C@@H](Cc1ccc(OP(=O)(O)O)cc1)C(=O)NC(C)c1ccc(OCC2CCCCC2)c(CC(N)=O)c1` (mixture of isomers) [Example 65, (S)-Phosphoric acid mono-(4-{2-acetylamino-2-[(RS)-1-(3-carbamoylmethyl-4-cyclohexylmethoxy-phenyl)-ethylcarbamoyl]-ethyl}-phenyl) ester], the pIC50 in assay [1] (setting [3]) is 4.62; in assay [2] (IC50, SRC SH2 Binding) it was 5.04.

In the case of `CC(=O)N[C@@H](Cc1ccc(OP(=O)(O)O)cc1)C(=O)NCc1ccc(OC(C)CC2CCCCC2)c(C(N)=O)c1` (mixture of isomers) [Example 66, Phosphoric acid mono-(4-{(S)-2-acetylamino-2-[3-carbamoyl-4-(2-cyclohexyl-(RS)-1-methyl-ethoxy)-benzylcarbamoyl]-ethyl}-phenyl) ester], the pIC50 is 4.96 in assay [1] (setting [3]) and 5.42 in assay [2] (IC50, SRC SH2 Binding).

Regarding `CC(=O)N[C@@H](Cc1ccc(OP(=O)(O)O)cc1)C(=O)NC(Cc1ccccc1)c1ccc(OCC2CCCCC2)c(C(N)=O)c1` (mixture of isomers) [Example 67, Phosphoric acid mono-(4{(S)-2-acetylamino-2-[(RS)-1-(3-carbamoyl-4-cyclohexylmethoxy-phenyl)-2-phenyl-ethylcarbamoyl]-ethyl}-phenyl) ester], the pIC50 in assay [1] (setting [3]) is 5.22; in assay [2] (IC50, SRC SH2 Binding) it was 6.00.

Regarding `CC(=O)N[C@@H](Cc1ccc(OP(=O)(O)O)cc1)C(=O)NC(C)c1ccc(OCc2cc(C)cc(C)c2)c(C(N)=O)c1` (mixture of isomers) [Example 68, Phosphoric acid mono-[4-((S)-2-acetylamino-2-{(RS)-1-[3-carbamoyl-4-(3,5-dimethyl-benzyloxy)-phenyl]-ethylcarbamoyl}-ethyl)-phenyl] ester], the pIC50 is 5.24 in assay [1] (setting [3]) and 5.96 in assay [2] (IC50, SRC SH2 Binding).

As for `CCCC(NC(=O)[C@H](Cc1ccc(OP(=O)(O)O)cc1)NC(C)=O)c1ccc(OCC2CCCCC2)c(C(N)=O)c1` (mixture of isomers) [Example 69, Phosphoric acid mono-(4-{(S)-2-acetylamino-2-[(RS)-1-(3-carbamoyl-4-cyclohexylmethoxy-phenyl)-butylcarbamoyl]-ethyl}-phenyl) ester], the pIC50 in assay [1] (setting [3]) is 5.13; in assay [2] (IC50, SRC SH2 Binding) it was 5.68.

`CC(=O)N[C@@H](Cc1ccc(P(=O)(O)O)cc1)C(=O)NC(C)c1ccc(OCC2CCCCC2)c(C(N)=O)c1` (mixture of isomers) [Example 73, (4-{(S)-2-Acetylamino-2-[(RS)-1-(3-carbamoyl-4-cyclohexylmethoxy-phenyl)-ethylcarbamoyl]-ethyl}-phenyl)-phosphonic acid]: the pIC50 in assay [1] (competitive 125I-phosphopeptide displacement, GST-Abl SH2 fusion protein, pH 7.5, room temperature, 20 minutes; read-out: IC50, Abl SH2 Binding) is 4.59; in assay [2] (setting [4]), 5.07.

As to `CC(NC(=O)Nc1cccc2cc(OP(=O)(O)O)ccc12)c1ccc(OCC2CCCCC2)c(C(N)=O)c1` (racemic) [Example 75, (+/-)-Phosphoric acid mono-(5-{3-[1-(3-carbamoyl-4-cyclohexylmethoxy-phenyl)-ethyl]-ureido}-naphthalen-2-yl) ester], the pIC50 in assay [1] (setting [3]) is around 4.22; in assay [2] (IC50, SRC SH2 Binding) it was 5.14.

`CN(CCCC1CCCCC1)C(=O)[C@H](CCC(=O)O)NC(=O)N(CC(=O)O)Cc1ccc(OP(=O)(O)O)cc1` [Example 35, (S)-4-[3-carboxymethyl-3-(4-phosphonooxy-benzyl)-ureido]-4-[(3-cyclohexyl-propyl)-methyl-carbamoyl]-butyric acid]: the negative logarithm of the IC50 (pIC50) in assay [1] (read-out: IC50, Abl SH2 Binding; competitive 125I-phosphopeptide displacement, GST-Abl SH2 fusion protein, pH 7.5, room temperature, 20 minutes) is below 4.00.

As for `CC(C)CCCOc1ccc(CNC(=O)c2ccc(OP(=O)(O)O)cc2)cc1C(N)=O` [Example 42, Phosphoric acid mono-{4-[3-carbamoyl-4-(4-methyl-pentyloxy)-benzylcarbamoyl]-phenyl} ester], the negative logarithm of the IC50 (pIC50) in assay [2] (IC50, SRC SH2 Binding) was around 4.52.

The molecule `CCC(C)CCCOc1ccc(CNC(=O)c2ccc(OP(=O)(O)O)cc2)cc1C(N)=O` (stereo not shown) [Example 43, Phosphoric acid mono-{4-[3-carbamoyl-4-(4-methyl-hexyloxy) -benzylcarbamoyl]-phenyl} ester] gave a negative-log IC50 (pIC50) in assay [2] (IC50, SRC SH2 Binding) of around 4.70.

Regarding `NC(=O)c1cc(CNC(=O)c2ccc(OP(=O)(O)O)cc2)ccc1OCC1CCCCC1` [Example 44, Phosphoric acid mono-[4-(3-carbamoyl-4-cyclohexyl-methoxy-benzylcarbamoyl)-phenyl] ester], the pIC50 in assay [2] (setting [4]) was 5.19.

Turning to `NC(=O)c1cc(CNC(=O)c2ccc(C(F)(F)P(=O)(O)O)cc2)ccc1OCC1CCCCC1` [Example 45, [4-(3-Carbamoyl-4-cyclohexylmethoxy-benzylcarbamoyl)-phenyl]-difluoro-methyl-phosphonic acid], in assay [2] (setting [4]), the pIC50 was around 4.30.

`Cc1cc(C(=O)NCc2ccc(OCC3CCCCC3)c(C(N)=O)c2)cc(C)c1OP(=O)(O)O` [Example 46, Phosphoric acid mono-[4-(3-carbamoyl-4-cyclohexyl-methoxy-benzylcarbamoyl)-2,6-dimethyl-phenyl] ester] gave a negative logarithm of the IC50 (pIC50) in assay [2] (IC50, SRC SH2 Binding) of 4.90.

In the case of `NC(=O)c1cc(CNC(=O)c2ccc(OP(=O)(O)O)c(Cl)c2)ccc1OCC1CCCCC1` [Example 47, Phosphoric acid mono-[4-(3-carbamoyl-4-cyclohexyl-methoxy-benzylcarbamoyl)-2-chloro-phenyl] ester], in assay [2] (IC50, SRC SH2 Binding), the negative-log IC50 (pIC50) is around 4.70.

`CNC(=O)c1cc(CNC(=O)c2ccc(OP(=O)(O)O)cc2)ccc1OCC1CCCCC1` [Example 48, Phosphoric acid mono-[4-(4-cyclohexylmethoxy-3-methylcarbamoyl-benzylcarbamoyl)-phenyl] ester]: in assay [2] (IC50, SRC SH2 Binding), the negative logarithm of the IC50 (pIC50) was around 4.52.

Molecule `CC(=O)N[C@@H](Cc1ccc(OP(=O)(O)O)cc1)C(=O)NCc1ccc(OCC2CCCCC2)c(C(N)=O)c1` [Example 49, (S)-Phosphoric acid mono-{4-[2-acetylamino-2-(3-carbamoyl-4-cyclohexylmethoxy-benzylcarbamoyl)-ethyl]-phenyl} ester] had a negative logarithm of the IC50 (pIC50) in assay [2] (IC50, SRC SH2 Binding) of 5.07.

The molecule `CC(=O)N[C@@H](Cc1ccc(OP(=O)(O)O)cc1)C(=O)NCc1ccc(OCc2cc(C)cc(C)c2)c(C(N)=O)c1` [Example 50, (S)-Phosphoric acid mono-(4-{2-acetylamino-2-[3-carbamoyl-4-(3,5-dimethyl-benzyloxy)-benzylcarbamoyl]-ethyl}-phenyl) ester] had a pIC50 in assay [2] (IC50, SRC SH2 Binding) of 5.60.

With `CNC(=O)N[C@@H](Cc1ccc(OP(=O)(O)O)cc1)C(=O)NCc1ccc(OCC2CCCCC2)c(C(N)=O)c1` [Example 52], in assay [2] (IC50, SRC SH2 Binding), the negative-log IC50 (pIC50) was 5.21.

Take `CC(=O)N[C@@H](Cc1ccc(C(F)(F)P(=O)(O)O)cc1)C(=O)NCc1ccc(OCC2CCCCC2)c(C(N)=O)c1` [Example 53, (S)-{4-[2-Acetylamino-2-(3-carbamoyl-4-cyclohexyl-methoxy-benzylcarbamoyl)-ethyl]-phenyl}-difluoro-methyl-phosphonic acid]: in assay [2] (IC50, SRC SH2 Binding), the pIC50 is 4.92.

For `CC(=O)N[C@@H](Cc1ccc(OP(=O)(O)O)cc1)C(=O)N[C@@H](CCC(=O)O)C(=O)NCCC12CC3CC(CC(C3)C1)C2` [Example 56, [S-(R*,R*)]-4-[2-Acetylamino-3-(4-phosphonooxy-phenyl)-propionylamino]-4-(2-adamantan-1-yl-ethylcarbamoyl)-butyric acid], the pIC50 in assay [2] (IC50, SRC SH2 Binding) was 5.42.

`CC(=O)N[C@@H](Cc1ccc(OP(=O)(O)O)cc1)C(=O)NCc1ccc(OCC2CCCCC2)c(C(=O)NN)c1` [Example 71, (S)-Phosphoric acid mono-{4-[2-acetylamino-2-(4-cyclohexylmethoxy-3-hydrazinocarbonyl-benzylcarbamoyl)-ethyl]-phenyl} ester] showed a negative-log IC50 (pIC50) in assay [2] (IC50, SRC SH2 Binding) of 4.74.

The values above are taken from patent publication US5922697A, “Compounds, compositions and methods for inhibiting the binding of proteins containing an SH2 domain to cognate phosphorylated proteins” (Warner-Lambert Company, priority 1998, dated 1999).
